Results published in patent US7981623B2, “Repressor of skeletal muscle differentiation, nucleic acids coding therefor and the use thereof in diagnosis and therapy” (Universitaetsklinikum Freiburg, priority 2002, dated 2011).
Entries after “also recorded” stand apart in the source; their conditions may differ.

Assays:
[1] = tested on: Gal4-RE-controlled complex and synthetic minimal reporter constructs; experiment: Gal4-DBD fusion repression, transient transfection luciferase reporter; type: cell-based; settings: for effect of HDAC inhibitor on Gal-GRIM1 repression: trichostatin A 300 nM, sodium butyrate 5 mM; for transcriptional repression: Gal4-DBD context, all reporter systems described; for repression potential as Gal4-DBD fusion (in words): transient transfections
Source text: To determine the transcriptional properties of hsGRIM1 proteins in eukaryotic cells, pCMX-hsGRIM1 expression plasmids were cotransfected with luciferase (LUC) reporter plasmids. Expression of the particular hsGRIM1 protein in a pCMX expression plasmid is under the control of the cytomegalovirus promoter. Luciferase expression in the LUC reporter plasmids used is controlled either by the thymidine kinase (TK) promoter, an E1b minimal promoter (TATA box), or by the respectively indicated complex promoters.
Transfection takes place by the calcium phosphate method or by the DOTAP liposomes method (Roche Diagnostics, product information). Unless otherwise indicated, 10^5 cells/well were seeded in 1 ml of culture medium in 12-well dishes. In the CaPO4 method, the plasmid DNA to be transfected is coprecipitated with calcium phosphate, and the precipitate is distributed to the cells capable of division. The calcium phosphate precipitate is prepared by preparing the mixture indicated below for duplicates in 12-well dishes:
While agitating (vortexing), 80 μl of 2xBES buffer are slowly and uniformly added dropwise to this mixture. The precipitate is incubated at RT for 10 min and distributed uniformly to the cells (80 μl per well) and, after 8 hours, removed by washing with PBS. The cells are incubated in fresh culture medium for a further 18 to 24 h. • BES buffer (2×): 50 mM N,N-bis[2hydroxyethyl]-2-aminoethanesulfonic acid; 280 mM NaCl; 1.5 mM Na2HPO4.2H2O; pH 6.95
Transiently transfected cells are washed once with PBS and lyzed by adding 50 μl of reporter lysis buffer (Promega) and further disrupted by freezing at −80° C. Cell lysates are transferred into Eppendorf reaction vessels, and cell detritus is pelleted at 14 000 rpm for 2′. 10 μl portions of the lysates are pipetted into 96-well microtiter plates to determine the luciferase activity. The luciferase assay took place in an EG&G Berthold Microluminomat. 40 μl of luciferase assay buffer are injected into the 10 μl of cell lysate, and the resulting chemiluminescence is determined in a time integral of 10″. The measured values for the luciferase activity are related to the amount of protein present in the cell lysate. For this purpose, 3 μl portions of the lysates are mixed in 96-well microtiter plates with 100 μl of Bradford assay reagent (BioRad) diluted 1:5 with H2O, and the absorption of the solution is determined at 595 nm. Relative luciferase activities are found from the ratio of the luciferase activity to the protein absorption. • Luciferase assay buffer: 200 mM tricine; 1.07 mM (MgCO3).4Mg(OH)2; 0.1 M MgSO4, 10 mM EDTA (pH 8.0); 33 mM DTT; […]; […] acetyl-coenzyme A; […] glowworm luciferin.
All the described data were obtained with the hsGRIM1 clone. […] Gal-GRIM1 represses expression of reporter genes both of Gal4-RE-controlled complex and synthetic minimal reporter constructs. The repression potential of GRIM1 is distinctly greater for example compared with the corepressor Gal-SuN-CoR. In these experiments, the appropriate corepressors are transiently expressed as heterologous Gal4-DBD fusion proteins in cells. The repression capacity on various synthetic promoter-reporter constructs compared with equal quantities of transfected wild-type Gal4-DBD is determined by luciferase reporter gene expression (FIG. 8).
Gal-GRIM1 is equally strong as a repressor as a large number of described corepressors such as, for example, Gal-HDAC1-10, Gal-CBF1, Gal-Alien and represses only insignificantly weaker than Gal-N-CoR-RD or Gal-SMRT-RD. The repression potential of Gal-GRIM1 was investigated in conjunction with the complex Gal43x-tk-LUC and Gal-MMTV-LUC promoter/reporter constructs and in conjunction with the minimal promoter/reporter constructs Gal5x-E1b-TATA-box and Gal3x-βglobin-TATA-LUC. […]

[2] = tested on: differentiating C2C12 skeletal muscle cells; experiment: GRIM1 relocalization in differentiating C2C12 cells under signal pathway inhibitors; type: cell-based, mouse; settings: day 0 to day 6 in differentiation medium; Gö6850 1 μM, LY294002 10 μM, Ro31-8220 0.5 μM, PD98059 10 μM, fasudil 10 μM
Method: The cells were cultured in the media recommended by the ATCC on 15 cm cell culture dishes under sterile conditions. Cells are subcultured in a ratio of 1:5 to 1:20 every two to three days and kept at a maximum of 60% confluence. Old medium is removed, and the cells are washed with PBS buffer and treated with trypsin/EDTA solution (0.25% trypsin, 0.04% EDTA in PBS buffer) until they are detached from the culture dish. The cells are isolated in fresh medium and subcultured on new subculture dishes. • PBS buffer: 137 mM NaCl; 2.7 mM KCl; 8 mM Na2HPO4; 1.8 mM KH2PO4 • Media used: DMEM (Gibco BRL), 100 IU penicillin G/ml, 100 μg/ml streptomycin, 2 mM glutamine, 10% fetal calf serum. As differentiation medium for C2C12 and L6 cells, 10% FCS was replaced by 2% horse serum.
Cells are seeded in the desired cell density on autoclaved slides and fixed on the support with 5% paraformaldehyde for 10′. Cell membranes are made permeable for antibodies by incubation in 0.2% TritonX100 for 10′. Before the incubation with the primary antibodies, the cells are blocked in 0.2% gelatin (in PBS) at RT for 1 h. Anti-hsGRIM1 antibodies are diluted 1:500 in 0.2% strength gelatin solution and incubated at RT for 1 h. After washing three times with PBS for 5′ each time, the respective fluorochrome-coupled secondary antibody is added 1:2000 in 0.2% gelatin solution and incubated in the dark at RT for 30′. After the washing steps, the nucleus is counterstained with DAPI (1 μg/ml PBS, Roche Diagnostics) and the cells are finally washed twice in 0.1% TritonX100 in order to minimize autofluorescences. The slides are preserved in Fluoromount M (Southern Biotechnology Associates) and analyzed using a fluorescence microscope.
Treatment of differentiating C2C12 skeletal muscle cells with various inhibitors of central signal transduction pathways have no effect on relocalization or the number of nuclear speckles of GRIM1 within the investigated differentiation from day 0 to day 6 after addition of the differentiation medium. Tested inhibitors: pan-HDAC inhibitors TSA and sodium butyrate, protein kinase inhibitors Gö6850 (specific PKC inhibitor, 1 μM), LY294002 (specific P13kinase inhibitor, 10 μM), Ro31-8220 (PKC broad-spectrum inhibitor, 0.5 μM), PD98059 (MEK1 inhibitor, 10 μM), fasudil (Rock kinase inhibitor, 10 μM), SB203580 (p38α/β inhibitor). Overacetylation and blockade of central signal cascades had drastic morphologically visible consequences for some of the cells, but there was no effect on relocalization or the number of detectable GRIM1 speckles.

[3] = tested on: androgen receptor (hsAR); experiment: GRIM1-AR protein-protein interaction (pulldown, co-IP, yTHS); type: binding, human
Method: Further functional characterization of the interaction domains within GRIM1 was carried out by pulldown analyses with the expressible fragments of GRIM1.

[4] = tested on: nuclear export of GFP-GRIM1 (exportin1/Crm1); experiment: Nuclear export of GFP-GRIM1 under leptomycin B; type: cell-based; settings: 20 nM for 6 h before cell harvesting
[5] = tested on: acetylation of core histones by p300; experiment: INHAT assay (in vitro acetylation of histones by p300); type: biochemical; settings: core histones H3, H2A, H2B and H4
Method: INHAT assays were carried out as described by Eckner et al. and by Seo et al. (Eckner et al., 1996, Genes and Development 10 (19), pp 2478-2490, Seo et al., 2001, Cell 104 (1), pp 119-130). Histones or histone mixtures are preincubated with the appropriate peptides in a total of 50 μl of HAT buffer, then mixed with bacterially expressed p300 HAT domains and 0.5 μCi of ^14C-acetyl-coenzyme A, and incubated at 30° C. and 1000 rpm for 2 h. Reactions are stopped by adding SDS Laemmli buffer. Proteins are fractionated in denaturing SDS-PAGE, and the gels are incubated in Amplify (NEN) for 1 h. Acetylations are detected in autoradiographies.
It was possible to show in GST pulldown analyses that the N- and C-terminal fragments of hsGRIM1 can associate directly with histones in vitro.

[6] = tested on: core histones H4, H2B, H2A and H3; experiment: GST pulldown with core histones; type: binding
Method: A protein is expressed as GST fusion protein in E. coli, immobilized on a GST-binding carrier material, and incubated with the potential interactant which is usually radiolabeled. In the subsequent washing steps, proteins which interact only weakly or not at all are washed off the carrier material or the carrier material-bound GST fusion protein. The amount of associated interactant can be determined by fractionation of the proteins by SDS-PAGE and subsequent autoradiography. To check the specificity of interaction between potential interactant and GST fusion protein, the interaction with GST alone is examined.
Aliquots of GST-GRIM1 fragments or GST-containing E. coli crude lysate are mixed in each case with 30 μl of glutathione(GSH)-Sepharose and incubated on a bohemian wheel at 4° C. for 1 h. The GSH-Sepharose is pelleted by centrifugation (1′ at 2000 rpm) and washed twice in pulldown buffer. The pellet is then resuspended in 500 μl of pulldown buffer and incubated with the in vitro translated, […] potential interactant at 4° C. on the bohemian wheel for 1 h. […]

## CN(C)CCCn1cc(C2=C(c3c[nH]c4ccccc34)C(=O)NC2=O)c2ccccc21 [Gö6850]
[1]; PKC inhibition or activation, various cell lines
  brought about a change in the transcriptional activity of Gal-GRIM1: Neither
[2]
  effect on relocalization or number of nuclear speckles of GRIM1: no effect

## O=c1cc(N2CCOCC2)oc2c(-c3ccccc3)cccc12 [LY294002]
[2]
  effect on relocalization or number of nuclear speckles of GRIM1: no effect

## COc1cccc(-c2cc(=O)c3ccccc3o2)c1N [PD98059]
[2]
  effect on relocalization or number of nuclear speckles of GRIM1: no effect

## Cn1cc(C2=C(c3cn(CCCSC(=N)N)c4ccccc34)C(=O)NC2=O)c2ccccc21 [Ro31-8220]
[2]
  effect on relocalization or number of nuclear speckles of GRIM1: no effect

## C[S+]([O-])c1ccc(-c2nc(-c3ccncc3)c(-c3ccc(F)cc3)[nH]2)cc1 (centres unmarked) [SB203580]
[2]
  effect on relocalization or number of nuclear speckles of GRIM1: no effect

## O=S(=O)(c1cccc2cnccc12)N1CCCNCC1 [fasudil]
[2]
  effect on relocalization or number of nuclear speckles of GRIM1: no effect

## CC(C)(O)C(=O)Nc1ccc([N+](=O)[O-])c(C(F)(F)F)c1 [hydroxyflutamide]
[3]
  influence of AR antagonist on GRIM1-AR interaction: cannot be influenced

## CCC(=C/[C@H](C)C/C=C/C(C)=C/[C@@H](C)C(=O)[C@@H](C)[C@H](O)[C@@H](C)C/C(C)=C/C(=O)O)/C=C/[C@@H]1OC(=O)C=C[C@@H]1C [leptomycin B]
[4]
  effect on nuclear export of GFP-GRIM1 or GFP-GRIM1 aa234-336: not influenced

## CCCC(=O)[O-].[Na+] [sodium butyrate]
[1]
  effect of HDAC inhibitor on Gal-GRIM1 repression: not impaired
[2]
  effect on relocalization or number of nuclear speckles of GRIM1: no effect

## CC(/C=C/C(=O)NO)=C\[C@@H](C)C(=O)c1ccc(N(C)C)cc1 [trichostatin A]
[1]; cotransfection of full-length p300 and Gal-GRIM1
  effect on general transcription: enhances general transcription
[1]
  effect of HDAC inhibitor on Gal-GRIM1 repression: not impaired; also recorded: relative repression by Gal-GRIM1 remains unchanged; also recorded: not influenced
[2]
  effect on relocalization or number of nuclear speckles of GRIM1: no effect

## GRIM1 aa 3-147: recombinantly expressed N-terminal hsGRIM1 fragment, tag not stated
[5]
  inhibition of histone acetylation by p300 (INHAT activity): efficiently blocks acetylation

## GST-E: GST-fused hsGRIM1 aa 3-147
[6]
  interaction with core histones: marked interaction

## GST-I: GST-fused hsGRIM1 aa 609-749
[3]; GST fragments, in the sequence M≧H>>I
  interacted with the AR in pulldown: interacted with the AR
[6]
  interaction with core histones: marked interaction

## Gal-E: hsGRIM1 aa 3-147 as Gal4-DBD fusion
[1]
  transcriptional repression: 2 ×
  repression potential as Gal4-DBD fusion (in words): smallest repressive effect

## Gal-I: hsGRIM1 aa 609-749 as Gal4-DBD fusion (Table 8; Table 2 differs)
[1]
  transcriptional repression: 2 ×
  repression potential as Gal4-DBD fusion (in words): smallest repressive effect

## mmGRIM1: mouse GRIM1, 750 amino acids, Seq. ID No. 4
[3]; tfIP, utfIP, yTHS, PD and tT
  interaction with hsAR: strong direct interaction
